Common to all, as to type: functional
Experiment [1] has as its system Enterococcus faecalis. The experiment is described as follows: In vitro antibacterial activity against Enterococcus faecalis A 9809.
Experiment [2] relates to Staphylococcus aureus. Briefly: In vitro antibacterial activity (minimum inhibitory concentration, MIC) against Staphylococcus aureus A 9537.
Experiment [3] has as its system Enterobacter cloacae. The experiment is described as follows: In vitro antibacterial activity against Enterobacter cloacae A 9656.
In experiment [4] the test system is Streptococcus pneumoniae. The experiment is described as follows: In vitro antibacterial activity against Streptococcus pneumoniae A 9585.
The test system of experiment [5] is Serratia marcescens. Briefly: In vitro antibacterial activity (minimum inhibitory concentration) against Serratia marcescens A 20019.
Experiment [6] deals with Pseudomonas aeruginosa. Briefly: Compound was tested in vitro for its antibacterial activity (minimum inhibitory concentration, MIC) against Pseudomonas aeruginosa A 9843.
For experiment [7], the system named is Proteus mirabilis. The experiment is described as follows: In vitro antibacterial activity (minimum inhibitory concentration, MIC) against Proteus mirabilis A 9900.
For experiment [8], the system named is Escherichia coli. The experiment is described as follows: In vitro antibacterial activity against Escherichia coli A 15119.
Experiment [9] has as its system Morganella morganii. The experiment is described as follows: In vitro antibacterial activity against Morganella morganii A 15153.
Experiment [10] concerns Staphylococcus aureus. Briefly: In vitro antibacterial activity against Staphylococcus aureus A 24227.
The test system of experiment [11] is Haemophilus influenzae. Briefly: In vitro antibacterial activity against Haemophilus influenzae A 21515.
For experiment [12], the system named is Bacteroides fragilis. The experiment is described as follows: Compound was tested in vitro for its antibacterial activity (minimum inhibitory concentration) against Bacteroides fragilis A 22862. The conditions noted are these: A22862.
The test system of experiment [13] is Klebsiella pneumoniae. The experiment is described as follows: In vitro antibacterial activity against Klebsiella pneumoniae A 9664.

≈ marks a conversion by molar mass, not a printed value.

Consider `CC(CF)(CF)n1cc(C(=O)O)c(=O)c2cc(F)c(N3CC[C@H](N)C3)nc21.CS(=O)(=O)O`, for which the MIC in experiment [1] is 16 µg/mL; in experiment [2], 8 µg/mL; in experiment [3], 0.5 µg/mL; in experiment [4], 16 µg/mL; in experiment [5], 2 µg/mL; in experiment [6], 8 µg/mL. Also, the MIC in [7] was 4 µg/mL; in experiment [8], 0.5 µg/mL; in experiment [9], 0.5 µg/mL; in [10], 4 µg/mL; in experiment [11], 0.25 µg/mL; in experiment [12] it was 125 µg/mL. The compound also returned an MIC in experiment [13] of 2 µg/mL.
As to `CS(=O)(=O)O.C[C@H]1C[C@H](N)CN1c1cc2c(cc1F)c(=O)c(C(=O)O)cn2C(C)(C)CF`, the MIC in experiment [1] was 0.25 µg/mL; in experiment [2], 0.03 µg/mL; in experiment [3], 0.06 µg/mL; in experiment [4], 0.25 µg/mL; in [5], 0.25 µg/mL; in [6] it was 1 µg/mL. In addition, the MIC was 0.13 µg/mL in experiment [7]; 0.03 µg/mL in [8]; 0.5 µg/mL in experiment [9]; 0.03 µg/mL in experiment [10]; 0.016 µg/mL in [11]; 4 µg/mL in experiment [12]. This compound registered an MIC in experiment [13] of 0.13 µg/mL.
Turning to `C[C@H]1CN(c2cc3c(cc2F)c(=O)c(C(=O)O)cn3C(C)(C)CF)C[C@@H]1N`, the MIC in experiment [1] turned out to be 0.25 µg/mL (≈ 0.659 µM); in [2] it was 0.03 µg/mL (≈ 0.0791 µM); in [3], 0.03 µg/mL (≈ 0.0791 µM); in experiment [4], 0.25 µg/mL (≈ 0.659 µM); in experiment [5] it was 0.13 µg/mL (≈ 0.343 µM); in [6], 0.5 µg/mL (≈ 1.32 µM). Further, the MIC was 0.06 µg/mL (≈ 0.158 µM) in experiment [7]; 0.008 µg/mL (≈ 0.0211 µM) in [8]; 0.06 µg/mL (≈ 0.158 µM) in [9]; 0.06 µg/mL (≈ 0.158 µM) in experiment [10]; 0.008 µg/mL (≈ 0.0211 µM) in experiment [11]; 4 µg/mL (≈ 10.5 µM) in experiment [12]. For the same compound, the MIC in experiment [13] was determined as 0.13 µg/mL (≈ 0.343 µM).
Regarding `CC(CF)(CF)n1cc(C(=O)O)c(=O)c2cc(F)c(N3CCNCC3)cc21.Cl`, the MIC is 1 µg/mL in experiment [1]; 1 µg/mL in experiment [2]; 0.25 µg/mL in experiment [3]; 8 µg/mL in experiment [4]; 0.5 µg/mL in experiment [5]; 1 µg/mL in [6]. For the same compound, the MIC in [7] was found to be 0.13 µg/mL; in experiment [8] it was 0.13 µg/mL; in experiment [9], 0.06 µg/mL; in experiment [10] it was 2 µg/mL; in experiment [11], 0.06 µg/mL; in [12] it was 16 µg/mL. In [13], this compound had an MIC of 0.13 µg/mL.
On to `CC(C)(CF)n1cc(C(=O)O)c(=O)c2cc(F)c(N3CCNCC3)cc21.Cl`, for which the MIC in experiment [1] was determined as 0.25 µg/mL; in experiment [2], 0.13 µg/mL; in experiment [3], 0.03 µg/mL; in experiment [4], 1 µg/mL; in [5] it was 0.06 µg/mL; in [6], 0.25 µg/mL. In addition, the MIC was 0.03 µg/mL in experiment [7]; 0.016 µg/mL in experiment [8]; 0.016 µg/mL in experiment [9]; 0.06 µg/mL in experiment [10]; 0.016 µg/mL in [11]; 8 µg/mL in [12]. In experiment [13], this compound returned an MIC of 0.016 µg/mL.
On to `C[C@H]1C[C@H](N)CN1c1nc2c(cc1F)c(=O)c(C(=O)O)cn2C(CF)(CF)CF.Cl`, for which the MIC came to 4 µg/mL in [1]; 0.5 µg/mL in [2]; 1 µg/mL in experiment [3]; 8 µg/mL in [4]; 2 µg/mL in experiment [5]; 32 µg/mL in [6]. Moreover, the MIC in experiment [7] was 4 µg/mL; in experiment [8] it was 0.5 µg/mL; in [9], 2 µg/mL; in [10], 1 µg/mL; in experiment [11], 0.5 µg/mL; in experiment [12], 125 µg/mL. The MIC in experiment [13] is 2 µg/mL.
Turning to `CC(C)(CF)n1cc(C(=O)O)c(=O)c2cc(F)c(N3C[C@H]4CC3CN4)cc21.Cl`, the MIC was 0.5 µg/mL in experiment [1]; 0.5 µg/mL in experiment [2]; 0.06 µg/mL in [3]; 1 µg/mL in experiment [4]; 0.13 µg/mL in experiment [5]; 0.25 µg/mL in experiment [6]. The MIC in [7] came out at 0.06 µg/mL; in experiment [8], 0.016 µg/mL; in experiment [9] it was 0.13 µg/mL; in experiment [10], 0.25 µg/mL; in [11], 0.008 µg/mL; in experiment [12], 8 µg/mL. For the same compound, in experiment [13], the MIC was 0.06 µg/mL.

Source of the values: ChEMBL document CHEMBL1125733, “Fluoronaphthyridines and -quinolones as antibacterial agents. 3. Synthesis and structure-activity relationships of new 1-(1,1-dimethyl-2-fluoroethyl), 1-[1-methyl-1-(fluoromethyl)-2-fluoroethyl], and 1-[1,1-(difluoromethyl)-2-fluoroethyl] substituted derivatives” (J Med Chem, 1991).
